For the first experiment, the target named is model TCER IMAHiAff#1. As to the kind of experiment: BLI measurements (Octet RED384) of peptide-loaded disulfide-stabilized pHLA.
Settings: not given
The format is binding. The text has this:
In order to confirm our results obtained from the ultra high throughput highSCORE measurements, we compared the KD values with the corresponding ones from BLI measurements (Fig. 4). The direct correlation between the two methods can be described as a hockey stick. Many peptides with single amino acid mutations show similar KD values as the WT peptide. This is especially the case for KD values obtained from the highSCORE measurements. Within the BLI data set, most of the library peptides show a higher KD value compared to the corresponding WT peptide (Fig. 4a). This relation results in a flat region within the correlation plot. All other peptide, with the exception of the ones highlighted with an arrow, show a good linear correlation between both data sets. It is important to note that while the spectroscopic principle behind BLI and highSCORE is similar, the experimental procedure is different. Using BLI, the pHLA complexes are bound to a sensor tip, which is dipped into a microtiter plate well containing the analyte. Thereafter, the sensor tip is wiggled within the well to ensure that the analyte is not depleted on the surface. In contrast, during a highSCORE measurement, the analyte is flushed over the microarray using a thin flow chamber. This makes the experimental procedure of a highSCORE measurement more similar to that of an SPR device. Consequently, differences in the KD values between BLI and highSCORE measurements are to be expected and might explain the shift in the overall distribution of the KD values (Fig. 4b). […] Since both measurement methods have their own advantages and disadvantages, it is difficult to tell which of the two methods provides the values that are closest to reality.
BLI measurements were performed on an Octet RED384 system using anti-Penta-His biosensors. In short, disulfide-stabilized molecules were refolded and peptide-loaded as previously described. All analytes or ligands were diluted to their final concentration in kinetics buffer (PBS, 0.1% BSA, 0.05% Tween-20) if not specified otherwise. All biosensors were hydrated for at least 10 minutes in kinetics buffer before use. Loadings and measurements were performed in 384 tilted well plates (Pall Fortébio) with at least 40 μ l at a 3 mm sensor offset. Plate temperature was set at 30 ^∘ C and shaker speed at 1000 rpm. To generate a baseline, sensors were dipped in kinetics buffer for 60 s before being loaded with 10 ug/ml of peptide loaded disulfide-stabilized pHLA for 120 s. Afterwards, a second 120 s baseline was recorded before a 60 s association and a 240 s dissociation phase. After individual measurements, sensors were regenerated using 10 mM Glycine pH 1.5 4 times for 5s each before another cycle was performed. 4 TCER concentrations (500nM, 158.1nM, 50nM and 15.8nM) were measured for each pHLA complex. A sensor loaded with an irrelevant pHLA was measured in line for reference sensor subtraction. All sensorgrams were analyzed using the OctetRED software “Data Analysis HT” version 11.0.0.50 (Pall Fortébio). Raw sensor data was aligned at the Y axis by aligning the data to the end of the baseline step, and inter-step correction was used to align the start of the dissociation to the end of the association phase. Savitzky-Golay filtering was applied. Resulting sensorgrams were then fitted using a 1:1 Langmuir kinetics binding model. In case of lower affinity binding events, the lower two concentrations were excluded from the fitting.
On to SLLQHLEGL [E7], for which the BLI_KD result was “no fit”. On the same count and under the same terms, with SLLQHLDGL [D7] the entry was “no fit”; with SLLQHLIFL [F8], “no fit”. For the sequence SLLQHLIWL [W8], the BLI_KD result was “no fit”.

The same experiment, now with this note: std in a column of its own.
On to SLLQHPIGL [P6], for which the BLI_KD result is recorded as “no fit”. For SLLQHLWGL [W7], the BLI_KD entry is “no fit”.
